Results: patent US8324258B2, “F1F0-ATPase inhibitors and related methods” (The Regents of the University of Michigan, priority 2007, dated 2012)

Legend:
[1] = test system: Ramos cells; assay: Cytotoxicity (cell death) in Ramos cells; assay type: cell-based; conditions: Ramos cells
Experimental: (§1) The compounds listed in Table 9 were tested for activity against F1F0-ATPase by measuring ATP synthesis and ATP hydrolysis. In addition, the compounds were assessed for cytotoxicity in Ramos cells Inhibition of ATP synthesis and hydrolysis by the F1F0-ATPase and cytotoxicity in Ramos cells was measured as described in K. M. Johnson et al. Chemistry & Biology 2005, 12, 485-496.

[2] = target: T1, F1F0-ATPase (Bos taurus, UniProt P13621); assay: Inhibition of ATP synthesis by the F1F0-ATPase; assay type: biochemical; conditions: IC40: concentration for 40% inhibition
Experimental: as §1

[3] = target: T1, F1F0-ATPase; assay: Inhibition of ATP hydrolysis by the F1F0-ATPase; assay type: biochemical; conditions: IC40: concentration for 40% inhibition
Experimental: as §1

SMILES | EC50 [1] [µM] | ATP Synthesis (IC40 μM) [2] [µM] | ATP Hydrolysis (IC40 μM) [3] [µM]
Cc1cccc(NC(=NC(=O)c2cccc(Cl)c2)NCCc2c[nH]cn2)c1 [III-9, (Z/E)-N-((2-(1H-imidazol-4-yl)ethylamino)(m-toluidino)methylene)-3-chlorobenzamide] | > 30 | >10 | >20
Cc1ccc(NC(=NC(=O)c2cccc(Cl)c2)NCCc2c[nH]cn2)cc1 [III-10, (Z/E)-N-((2-(1H-imidazol-4-yl)ethylamino)(p-toluidino)methylene)-3-chlorobenzamide] | > 10 | >10 | >20
COc1ccccc1NC(=NC(=O)c1cccc(Cl)c1)NCCc1c[nH]cn1 [III-11, (Z/E)-N-((2-(1H-imidazol-4-yl)ethylamino)(2-methoxyphenylamino)methylene)-3-chlorobenzamide] | > 30 | >10 | >30
COc1cccc(NC(=NC(=O)c2cccc(Cl)c2)NCCc2c[nH]cn2)c1 [III-12, (Z/E)-N-((2-(1H-imidazol-4-yl)ethylamino)(3-methoxyphenylamino)methylene)-3-chlorobenzamide] | > 30 | >20 | >30
COc1ccc(NC(=NC(=O)c2cccc(Cl)c2)NCCc2c[nH]cn2)cc1 [III-13, (Z/E)-N-((2-(1H-imidazol-4-yl)ethylamino)(4-methoxyphenylamino)methylene)-3-chlorobenzamide] | > 30 | >10 | >30
O=C(N=C(NCCc1c[nH]cn1)Nc1ccccc1F)c1cccc(Cl)c1 [III-14, (Z/E)-N-((2-(1H-imidazol-4-yl)ethylamino)(2-fluorophenylamino)methylene)-3-chlorobenzamide] | > 30 | >20 | >30
O=C(N=C(NCCc1c[nH]cn1)Nc1cccc(F)c1)c1cccc(Cl)c1 [III-15, (Z/E)-N-((2-(1H-imidazol-4-yl)ethylamino)(3-fluorophenylamino)methylene)-3-chlorobenzamide] | > 30 | >20 | >30
O=C(N=C(NCCc1c[nH]cn1)Nc1ccc(F)cc1)c1cccc(Cl)c1 [III-16, (Z/E)-N-((2-(1H-imidazol-4-yl)ethylamino)(4-fluorophenylamino)methylene)-3-chlorobenzamide] | > 30 | >20 | >30
O=C(N=C(NCCc1c[nH]cn1)Nc1ccccc1Cl)c1cccc(Cl)c1 [III-17, (Z/E)-N-((2-(1H-imidazol-4-yl)ethylamino)(2-chlorophenylamino)methylene)-3-chlorobenzamide] | > 30 | >10 | >20
O=C(N=C(NCCc1c[nH]cn1)Nc1cccc(Cl)c1)c1cccc(Cl)c1 [III-18, (Z/E)-N-((2-(1H-imidazol-4-yl)ethylamino)(3-chlorophenylamino)methylene)-3-chlorobenzamide] | > 10 | >10 | >20
O=C(N=C(NCCc1c[nH]cn1)Nc1ccc(Cl)cc1)c1cccc(Cl)c1 [III-19, (Z/E)-N-((2-(1H-imidazol-4-yl)ethylamino)(4-chlorophenylamino)methylene)-3-chlorobenzamide] | > 10 | >10 | >30
O=C(N=C(NCCc1c[nH]cn1)Nc1ccc(Br)cc1)c1cccc(Cl)c1 [III-20, (Z/E)-N-((2-(1H-imidazol-4-yl)ethylamino)(4-bromophenylamino)methylene)-3-chlorobenzamide] | > 10 | >10 | >10
N#Cc1ccc(-c2ccc(NC(=NC(=O)c3cccc(Cl)c3)NCCc3c[nH]cn3)cc2)cc1 [III-21, (Z/E)-N-((2-(1H-imidazol-4-yl)ethylamino)(4′-cyanobiphenyl-4-ylamino)methylene)-3-chlorobenzamide] | < 10 | <10 | >30
O=C(N=C(NCCc1c[nH]cn1)Nc1ccccc1C(F)(F)F)c1cccc(Cl)c1 [III-23, (Z/E)-N-((2-(1H-imidazol-4-yl)ethylamino)(2-(trifluoromethyl)phenylamino)methylene)-3-chlorobenzamide] | > 20 | >20 | >20
O=C(N=C(NCCc1c[nH]cn1)Nc1cccc(C(F)(F)F)c1)c1cccc(Cl)c1 [III-24, (Z/E)-N-((2-(1H-imidazol-4-yl)ethylamino)(3-(trifluoromethyl)phenylamino)methylene)-3-chlorobenzamide] | > 10 | <10 | <10
O=C(N=C(NCCc1c[nH]cn1)Nc1ccc(C(F)(F)F)cc1)c1cccc(Cl)c1 [III-25, (Z/E)-N-((2-(1H-imidazol-4-yl)ethylamino)(4-(trifluoromethyl)phenylamino)methylene)-3-chlorobenzamide] | > 10 | >10 | <10
O=C(N=C(NCCc1c[nH]cn1)Nc1ccc2ccccc2c1)c1cccc(Cl)c1 [III-26, (Z/E)-N-((2-(1H-imidazol-4-yl)ethylamino)(naphthalen-2-ylamino)methylene)-3-chlorobenzamide] | > 10 | >10 | >10
O=C(N=C(NCCc1c[nH]cn1)Nc1cccc2ccccc12)c1cccc(Cl)c1 [III-27, (Z/E)-N-((2-(1H-imidazol-4-yl)ethylamino)(naphthalen-1-ylamino)methylene)-3-chlorobenzamide] | > 10 | <10 | >10
O=C(N=C(NCCc1c[nH]cn1)Nc1ccc(-c2ccc(Cl)cc2)cc1)c1cccc(Cl)c1 [III-29, (Z/E)-N-((2-(1H-imidazol-4-yl)ethylamino)(4′-chlorobiphenyl-4-ylamino)methylene)-3-chlorobenzamide] | < 10 | >10 | >10
Cc1cccc(-c2ccc(NC(=NC(=O)c3cccc(Cl)c3)NCCc3c[nH]cn3)cc2)c1 [III-31, (Z/E)-N-((2-(1H-imidazol-4-yl)ethylamino)(3′-methylbiphenyl-4-ylamino)methylene)-3-chlorobenzamide] | < 10 | >10 | >10
COc1cccc(-c2ccc(NC(=NC(=O)c3cccc(Cl)c3)NCCc3c[nH]cn3)cc2)c1 [III-34, (Z/E)-N-((2-(1H-imidazol-4-yl)ethylamino)(3′-methoxybiphenyl-4-ylamino)methylene)-3-chlorobenzamide] | < 10 | <10 | >10
COc1ccc(-c2ccc(NC(=NC(=O)c3cccc(Cl)c3)NCCc3c[nH]cn3)cc2)cc1 [III-35, (Z/E)-N-((2-(1H-imidazol-4-yl)ethylamino)(4′-methoxybiphenyl-4-ylamino)methylene)-3-chlorobenzamide] | < 10 | <10 | >10
CS(=O)(=O)c1cccc(NC(=NC(=O)c2cccc(Cl)c2)NCCc2cnc[nH]2)c1 [III-37, (Z/E)-N-((2-(1H-imidazol-5-yl)ethylamino)(3-(methylsulfonyl)phenylamino)methylene)-3-chlorobenzamide] | > 30 | >20 | >30
CS(=O)(=O)c1ccccc1NC(=NC(=O)c1cccc(Cl)c1)NCCc1cnc[nH]1 [III-38, (Z/E)-N-((2-(1H-imidazol-5-yl)ethylamino)(2-(methylsulfonyl)phenylamino)methylene)-3-chlorobenzamide] | > 30 | >20 | >30
CN(C)S(=O)(=O)c1ccc(NC(=NC(=O)c2cccc(Cl)c2)NCCc2cnc[nH]2)cc1 [III-39, (Z/E)-N-((2-(1H-imidazol-5-yl)ethylamino)(4-(N,N-dimethylsulfamoyl)phenylamino)methylene)-3-chlorobenzamide] | > 30 | >20 | >30
CN(C)S(=O)(=O)c1cccc(NC(=NC(=O)c2cccc(Cl)c2)NCCc2cnc[nH]2)c1 [III-40, (Z/E)-N-((2-(1H-imidazol-5-yl)ethylamino)(3-(N,N-dimethylsulfamoyl)phenylamino)methylene)-3-chlorobenzamide] | > 30 | >20 | >30
CCc1ccccc1NC(=NC(=O)c1cccc(Cl)c1)NCCc1c[nH]cn1 [III-41] | > 30 | >10 | >10
CCc1cccc(NC(=NC(=O)c2cccc(Cl)c2)NCCc2c[nH]cn2)c1 [III-42] | > 20 | <10 | >20
CCc1ccc(NC(=NC(=O)c2cccc(Cl)c2)NCCc2c[nH]cn2)cc1 [III-43, (Z/E)-N-((2-(1H-imidazol-4-yl)ethylamino)(4-ethylphenylamino)methylene)-3-chlorobenzamide] | > 10 | >10 | >20
